Earlier results, collected in patent US4096052A, “Electrochemical hydroxylation of certain aromatic compounds” (priority 1977, dated 1978).
Like-named read-outs stand apart in the source and are kept apart here. Values belong to the compound of their own block, whether it stands above or below them.

[1] = Table II (comparison acids), H2O, 25° C

SMILES: O=C(O)CBr [bromoacetic]
- Ka (H2 O) at 25° C (Table I, H2O, 25° C): 2.05 × 10^-3

SMILES: O=C(O)CCl [chloroacetic, chloroacetic acid]
- Ka (H2 O) at 25° C (Table I, H2O, 25° C): 1.4 × 10^-3

- Ka (H2 O) at 25° C (Table I, H2O, 25° C): 3.65 × 10^-3
- pKa (H2 O) at 25° C (water): 2.41
SMILES: N#CCC(=O)O [cyanoacetic, cyanoacetic acid]

SMILES: O=C(O)C(Cl)Cl [dichloroacetic]
- Ka (H2 O) at 25° C (Table I, H2O, 25° C): 3.32 × 10^-2

- Ka (H2 O) at 25° C [1]: 1.5 × 10^-5
SMILES: CCCCC(=O)O [n-valeric]

- Ka (H2 O) (Table I, H2O, 18° C): 6.95 × 10^-3
- pKa (H2 O) (water): 2.16
SMILES: O=C(O)c1ccccc1[N+](=O)[O-] [o-nitrobenzoic, o-nitrobenzoic acid]

SMILES: O=C(O)Cc1ccccc1 [phenylacetic]
- Ka (H2 O) (Table II, H2O, 18° C): 5.2
- pKa (H2 O) (Table II, H2O, 18° C): 4.28

- Ka (H2 O) at 25° C [1]: 1.34 × 10^-5
SMILES: CCC(=O)O [propionic]

SMILES: O=C(O)C(Cl)(Cl)Cl [trichloroacetic, trichloroacetic acid]
- Ka (H2 O) at 25° C (Table I, H2O, 25° C): 2 × 10^-1
- pKa (H2 O) at 25° C (Table I, H2O, 25° C): 0.70

SMILES: O=C(O)C(F)(F)F [trifluoroacetic, trifluoroacetic acid]
- dissociation in aqueous solution (Table I footnote in place of Ka) (Table I footnote, H2O, 25° C): completely dissociated in aqueous solution
- pKa (H2 O) at 25° C (Table I, H2O, 25° C): 0

- pKa (H2 O) at 25° C (water): 4.34
SMILES: C=CCC(=O)O [vinylacetic]

SMILES: CCC(Cl)C(=O)O (stereo not drawn) [α-chlorobutyric]
- Ka (H2 O) at 25° C (Table I, H2O, 25° C): 1.39 × 10^-3
- pKa (H2 O) at 25° C (Table I, H2O, 25° C): 2.86

SMILES: CC(Cl)C(=O)O (stereo not drawn) [α-chloropropionic]
- Ka (H2 O) at 25° C (Table I, H2O, 25° C): 1.47 × 10^-3
- pKa (H2 O) at 25° C (Table I, H2O, 25° C): 2.83

SMILES: CC(Cl)CC(=O)O (stereo not drawn) [β-chlorobutyric]
- Ka (H2 O) at 25° C [1]: 8.9 × 10^-5
- pKa (H2 O) at 25° C [1]: 4.05

- Ka (H2 O) at 25° C [1]: 1.04 × 10^-4
- pKa (H2 O) at 25° C [1]: 3.98
SMILES: O=C(O)CCCl [β-chloropropionic]
